This note sets out measurements from ChEMBL document CHEMBL1145498, “A systematic interaction map of validated kinase inhibitors with Ser/Thr kinases” (Proc Natl Acad Sci U S A, 2007).

Molecules are shown by their SMILES. A value given as a limit tells only on which side of the number the result lay.

Test [1] deals with Calcium/calmodulin-dependent protein kinase type II subunit delta (Homo sapiens) (UniProt Q13557).
The nature of test [2]: Inhibition of NS3-associated HCV viral helicase activity using RNA substrate. Details: species or system Hepacivirus hominis.
Test [3] deals with T1, Dual specificity mitogen-activated protein kinase kinase 6 (Homo sapiens) (UniProt P52564).
T1 sequence (whole entry): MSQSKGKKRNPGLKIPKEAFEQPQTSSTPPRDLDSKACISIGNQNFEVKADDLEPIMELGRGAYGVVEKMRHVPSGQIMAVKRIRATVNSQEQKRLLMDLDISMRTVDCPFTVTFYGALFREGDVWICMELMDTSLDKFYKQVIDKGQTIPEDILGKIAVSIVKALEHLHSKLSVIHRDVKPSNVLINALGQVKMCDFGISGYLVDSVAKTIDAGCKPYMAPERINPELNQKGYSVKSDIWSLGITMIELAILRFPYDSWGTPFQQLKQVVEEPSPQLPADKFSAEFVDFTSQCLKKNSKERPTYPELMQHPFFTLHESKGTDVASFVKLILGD

Test [4] addresses Dual specificity protein kinase CLK2 (Homo sapiens) (UniProt P49760).
The target in test [5] is Calcium/calmodulin-dependent protein kinase type II subunit gamma (Homo sapiens) (UniProt Q13555).
In test [6] the target is T2, Serine/threonine-protein kinase VRK1 (Homo sapiens) (UniProt Q99986).
T2 sequence (whole entry): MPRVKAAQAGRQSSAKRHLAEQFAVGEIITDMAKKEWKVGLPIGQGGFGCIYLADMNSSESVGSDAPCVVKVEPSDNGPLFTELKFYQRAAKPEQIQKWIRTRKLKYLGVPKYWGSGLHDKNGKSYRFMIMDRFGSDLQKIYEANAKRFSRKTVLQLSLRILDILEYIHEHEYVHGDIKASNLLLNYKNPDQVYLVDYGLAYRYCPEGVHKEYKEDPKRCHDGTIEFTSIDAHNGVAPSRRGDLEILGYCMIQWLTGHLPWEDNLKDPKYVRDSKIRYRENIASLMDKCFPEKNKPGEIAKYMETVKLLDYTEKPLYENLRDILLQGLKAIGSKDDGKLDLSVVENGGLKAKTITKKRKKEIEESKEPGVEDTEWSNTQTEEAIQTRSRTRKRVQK

The target in test [7] is Mitogen-activated protein kinase 11 (Homo sapiens, UniProt Q15759).
For test [8], the target named is Calcium/calmodulin-dependent protein kinase type II subunit beta (Homo sapiens) (UniProt Q13554).
The target of test [9] is Glycogen synthase kinase-3 beta (Homo sapiens, UniProt P49841).
A short description of test [10]: Binding affinity at PKA.
Test [11] concerns the target Myosin light chain kinase, smooth muscle (Homo sapiens, UniProt Q15746). Briefly: Inhibition of myosin light chain kinase.
A short description of test [12]: Binding affinity at PKC.
Test [13] deals with Mast/stem cell growth factor receptor Kit (Homo sapiens, UniProt P10721). Briefly: Inhibition of c-kit.
Test [14] concerns the target T3, Serine/threonine-protein kinase Chk1 (Homo sapiens, UniProt O14757).
T3 sequence (O14757 whole entry): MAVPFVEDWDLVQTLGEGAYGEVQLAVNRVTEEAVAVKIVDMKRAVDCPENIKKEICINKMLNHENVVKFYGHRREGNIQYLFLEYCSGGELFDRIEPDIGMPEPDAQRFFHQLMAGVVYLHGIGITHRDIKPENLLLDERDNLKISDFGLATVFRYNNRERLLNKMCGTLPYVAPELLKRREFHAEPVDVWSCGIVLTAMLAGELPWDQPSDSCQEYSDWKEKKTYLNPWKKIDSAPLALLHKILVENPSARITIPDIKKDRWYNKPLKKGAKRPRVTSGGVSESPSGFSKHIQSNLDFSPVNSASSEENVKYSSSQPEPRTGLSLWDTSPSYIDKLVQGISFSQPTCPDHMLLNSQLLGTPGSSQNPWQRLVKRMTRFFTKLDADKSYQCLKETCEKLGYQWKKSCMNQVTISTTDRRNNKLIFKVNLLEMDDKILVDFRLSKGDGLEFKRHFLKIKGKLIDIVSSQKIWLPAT
Briefly: Inhibition of Chk1.

Test [15] concerns the target Mitogen-activated protein kinase 3 (Homo sapiens, UniProt P27361). Put plainly: Inhibition of ERK1.
Test [16] has as its target Mitogen-activated protein kinase 1 (Homo sapiens, UniProt P28482). Put plainly: Inhibition of ERK2.
For test [17], the target named is Proto-oncogene tyrosine-protein kinase Src (Homo sapiens, UniProt P12931). Briefly: Inhibition of Src. The settings on record: read-out: IC50.
The target in test [18] is T4, Protein kinase C epsilon type (Homo sapiens, UniProt Q02156).
T4 sequence (Q02156 whole entry): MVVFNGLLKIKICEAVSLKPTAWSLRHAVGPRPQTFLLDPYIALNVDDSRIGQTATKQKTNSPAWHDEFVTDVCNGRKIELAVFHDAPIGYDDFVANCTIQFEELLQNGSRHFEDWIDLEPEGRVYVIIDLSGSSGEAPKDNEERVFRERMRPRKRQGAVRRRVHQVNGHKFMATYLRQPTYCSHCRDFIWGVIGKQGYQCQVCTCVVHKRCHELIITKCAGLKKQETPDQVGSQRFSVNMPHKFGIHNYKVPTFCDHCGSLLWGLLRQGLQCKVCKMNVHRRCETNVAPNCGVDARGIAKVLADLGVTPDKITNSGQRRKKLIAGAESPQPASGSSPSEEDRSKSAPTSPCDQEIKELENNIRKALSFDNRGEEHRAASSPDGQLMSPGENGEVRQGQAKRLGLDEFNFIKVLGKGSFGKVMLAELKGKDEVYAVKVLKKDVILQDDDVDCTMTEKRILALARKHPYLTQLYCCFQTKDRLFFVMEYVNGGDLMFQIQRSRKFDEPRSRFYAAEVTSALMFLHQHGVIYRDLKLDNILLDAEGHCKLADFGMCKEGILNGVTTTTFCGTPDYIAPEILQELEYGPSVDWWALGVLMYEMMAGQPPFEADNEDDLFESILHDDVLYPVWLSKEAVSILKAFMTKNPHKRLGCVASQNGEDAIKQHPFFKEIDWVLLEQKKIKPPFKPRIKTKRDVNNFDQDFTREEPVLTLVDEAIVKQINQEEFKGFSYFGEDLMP
Put plainly: Inhibition of PKCepsilon.

Test [19] is described as follows: Inhibition of p34cdc2/cyclin B.

Chain of Glycogen synthase kinase-3 beta (P49841 whole entry, looked up): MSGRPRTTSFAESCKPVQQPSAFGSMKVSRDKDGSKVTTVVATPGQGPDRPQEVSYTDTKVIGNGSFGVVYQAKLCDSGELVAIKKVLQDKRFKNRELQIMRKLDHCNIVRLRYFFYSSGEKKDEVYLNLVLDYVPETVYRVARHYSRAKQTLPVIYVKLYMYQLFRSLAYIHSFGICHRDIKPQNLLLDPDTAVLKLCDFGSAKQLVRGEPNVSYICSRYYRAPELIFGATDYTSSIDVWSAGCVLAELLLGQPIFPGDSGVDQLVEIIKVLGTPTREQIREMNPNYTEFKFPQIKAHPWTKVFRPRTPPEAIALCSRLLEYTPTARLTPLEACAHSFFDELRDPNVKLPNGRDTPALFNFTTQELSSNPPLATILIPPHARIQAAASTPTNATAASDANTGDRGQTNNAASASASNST
Chain of Calcium/calmodulin-dependent protein kinase type II subunit delta (Homo sapiens) (Q13557 whole entry): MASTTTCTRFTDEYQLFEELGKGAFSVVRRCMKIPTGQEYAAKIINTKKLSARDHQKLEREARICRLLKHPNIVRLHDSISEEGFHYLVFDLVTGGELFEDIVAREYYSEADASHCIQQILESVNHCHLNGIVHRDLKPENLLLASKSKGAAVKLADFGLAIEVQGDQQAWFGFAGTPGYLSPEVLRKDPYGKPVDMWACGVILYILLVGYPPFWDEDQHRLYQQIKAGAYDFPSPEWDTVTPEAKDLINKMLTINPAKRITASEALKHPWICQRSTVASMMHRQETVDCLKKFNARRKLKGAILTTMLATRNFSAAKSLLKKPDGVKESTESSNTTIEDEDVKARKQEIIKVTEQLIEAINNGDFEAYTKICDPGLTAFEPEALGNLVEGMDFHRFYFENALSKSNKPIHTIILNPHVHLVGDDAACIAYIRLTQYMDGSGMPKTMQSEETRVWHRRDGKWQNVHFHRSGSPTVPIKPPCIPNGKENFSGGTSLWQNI
Chain of Mitogen-activated protein kinase 11 (Q15759 whole entry): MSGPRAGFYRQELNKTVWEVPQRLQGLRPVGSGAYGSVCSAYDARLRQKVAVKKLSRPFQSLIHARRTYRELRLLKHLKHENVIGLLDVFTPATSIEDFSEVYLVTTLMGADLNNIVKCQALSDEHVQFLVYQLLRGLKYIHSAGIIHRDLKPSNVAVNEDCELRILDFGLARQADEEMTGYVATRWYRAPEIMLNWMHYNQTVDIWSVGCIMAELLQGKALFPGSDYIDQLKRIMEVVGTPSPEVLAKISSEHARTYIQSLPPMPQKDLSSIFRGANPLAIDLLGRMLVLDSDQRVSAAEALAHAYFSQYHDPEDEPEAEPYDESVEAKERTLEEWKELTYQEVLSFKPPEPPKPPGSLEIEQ
Chain of Mast/stem cell growth factor receptor Kit (P10721 whole entry): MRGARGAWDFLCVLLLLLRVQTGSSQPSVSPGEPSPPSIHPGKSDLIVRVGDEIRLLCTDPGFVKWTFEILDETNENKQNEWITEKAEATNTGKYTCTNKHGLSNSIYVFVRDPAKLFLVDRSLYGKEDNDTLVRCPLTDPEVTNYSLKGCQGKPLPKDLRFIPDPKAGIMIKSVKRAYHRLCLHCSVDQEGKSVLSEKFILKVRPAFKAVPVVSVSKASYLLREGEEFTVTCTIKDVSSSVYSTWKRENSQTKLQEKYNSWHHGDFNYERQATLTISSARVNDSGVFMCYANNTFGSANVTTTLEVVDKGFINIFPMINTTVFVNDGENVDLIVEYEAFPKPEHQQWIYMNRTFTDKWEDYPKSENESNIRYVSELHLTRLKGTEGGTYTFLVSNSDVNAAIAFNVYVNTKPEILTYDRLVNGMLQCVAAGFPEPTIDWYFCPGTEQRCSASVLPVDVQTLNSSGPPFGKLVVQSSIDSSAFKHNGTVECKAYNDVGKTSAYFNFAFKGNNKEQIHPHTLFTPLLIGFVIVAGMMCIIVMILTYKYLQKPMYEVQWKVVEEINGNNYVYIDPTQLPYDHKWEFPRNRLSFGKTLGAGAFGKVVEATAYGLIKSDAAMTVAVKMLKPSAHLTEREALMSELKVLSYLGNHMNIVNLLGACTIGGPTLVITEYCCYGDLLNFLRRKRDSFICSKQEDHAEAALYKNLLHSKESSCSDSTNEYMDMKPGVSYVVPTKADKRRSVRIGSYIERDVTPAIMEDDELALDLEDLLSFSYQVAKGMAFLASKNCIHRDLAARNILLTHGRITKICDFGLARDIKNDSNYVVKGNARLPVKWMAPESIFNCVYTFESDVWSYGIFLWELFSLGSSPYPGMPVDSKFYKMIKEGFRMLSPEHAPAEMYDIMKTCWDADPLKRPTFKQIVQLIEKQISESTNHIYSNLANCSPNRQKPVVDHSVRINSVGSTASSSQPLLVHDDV
Chain of Dual specificity protein kinase CLK2 (Homo sapiens) (P49760 whole entry, looked up): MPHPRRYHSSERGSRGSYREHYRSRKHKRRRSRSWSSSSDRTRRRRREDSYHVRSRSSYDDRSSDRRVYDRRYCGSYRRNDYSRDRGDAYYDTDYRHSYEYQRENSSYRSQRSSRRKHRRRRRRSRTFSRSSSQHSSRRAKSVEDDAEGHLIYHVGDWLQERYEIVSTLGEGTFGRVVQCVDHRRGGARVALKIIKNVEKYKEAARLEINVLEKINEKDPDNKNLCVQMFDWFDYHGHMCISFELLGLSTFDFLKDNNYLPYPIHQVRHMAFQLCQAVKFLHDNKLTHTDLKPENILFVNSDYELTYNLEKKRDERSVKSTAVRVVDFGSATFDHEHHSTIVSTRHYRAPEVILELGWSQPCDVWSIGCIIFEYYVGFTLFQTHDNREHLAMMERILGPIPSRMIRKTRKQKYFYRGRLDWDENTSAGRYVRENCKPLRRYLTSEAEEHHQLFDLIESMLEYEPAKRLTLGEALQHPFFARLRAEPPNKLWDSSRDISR
Chain of Mitogen-activated protein kinase 3 (P27361 whole entry): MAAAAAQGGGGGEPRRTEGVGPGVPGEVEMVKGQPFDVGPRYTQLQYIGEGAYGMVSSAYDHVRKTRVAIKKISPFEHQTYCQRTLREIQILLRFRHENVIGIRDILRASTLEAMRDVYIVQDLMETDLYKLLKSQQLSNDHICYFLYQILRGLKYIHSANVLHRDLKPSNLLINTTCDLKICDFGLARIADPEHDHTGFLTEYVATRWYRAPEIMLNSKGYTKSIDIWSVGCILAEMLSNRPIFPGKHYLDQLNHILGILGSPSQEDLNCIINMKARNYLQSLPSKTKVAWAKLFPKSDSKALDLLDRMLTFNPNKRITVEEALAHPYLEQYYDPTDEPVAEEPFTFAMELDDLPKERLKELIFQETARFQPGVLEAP
Chain of Calcium/calmodulin-dependent protein kinase type II subunit gamma (Homo sapiens) (Q13555 whole entry): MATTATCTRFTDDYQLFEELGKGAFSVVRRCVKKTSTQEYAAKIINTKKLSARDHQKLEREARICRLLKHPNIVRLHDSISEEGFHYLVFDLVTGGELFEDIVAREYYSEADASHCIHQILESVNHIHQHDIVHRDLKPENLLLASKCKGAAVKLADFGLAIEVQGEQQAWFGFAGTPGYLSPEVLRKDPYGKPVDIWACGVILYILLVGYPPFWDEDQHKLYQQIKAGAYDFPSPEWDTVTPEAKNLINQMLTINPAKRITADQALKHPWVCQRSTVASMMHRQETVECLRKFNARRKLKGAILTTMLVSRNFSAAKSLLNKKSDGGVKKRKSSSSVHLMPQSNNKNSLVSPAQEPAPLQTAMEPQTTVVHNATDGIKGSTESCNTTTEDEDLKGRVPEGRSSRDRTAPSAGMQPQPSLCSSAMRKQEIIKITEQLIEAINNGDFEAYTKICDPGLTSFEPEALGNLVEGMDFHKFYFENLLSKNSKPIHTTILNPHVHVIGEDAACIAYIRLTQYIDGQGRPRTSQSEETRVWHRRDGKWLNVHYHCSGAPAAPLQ
Chain of Calcium/calmodulin-dependent protein kinase type II subunit beta (Homo sapiens) (Q13554 whole entry): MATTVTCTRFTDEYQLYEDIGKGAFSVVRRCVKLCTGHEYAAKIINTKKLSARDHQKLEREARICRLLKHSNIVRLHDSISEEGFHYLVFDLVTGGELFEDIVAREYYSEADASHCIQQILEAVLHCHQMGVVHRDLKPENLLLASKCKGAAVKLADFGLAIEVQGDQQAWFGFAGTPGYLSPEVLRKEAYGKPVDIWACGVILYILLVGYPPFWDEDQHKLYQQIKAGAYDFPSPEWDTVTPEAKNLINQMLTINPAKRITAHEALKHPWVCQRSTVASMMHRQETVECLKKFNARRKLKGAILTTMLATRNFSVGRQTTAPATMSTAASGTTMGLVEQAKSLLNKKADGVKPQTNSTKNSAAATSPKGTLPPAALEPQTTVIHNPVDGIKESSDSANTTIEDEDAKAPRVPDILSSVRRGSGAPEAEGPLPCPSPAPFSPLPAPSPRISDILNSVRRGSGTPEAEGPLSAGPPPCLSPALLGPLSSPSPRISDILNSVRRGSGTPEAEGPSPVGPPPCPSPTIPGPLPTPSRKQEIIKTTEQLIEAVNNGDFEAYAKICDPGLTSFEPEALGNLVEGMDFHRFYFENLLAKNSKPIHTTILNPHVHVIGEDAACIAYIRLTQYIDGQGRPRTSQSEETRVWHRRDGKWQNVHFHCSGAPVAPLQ
Chain of Mitogen-activated protein kinase 1 (P28482 whole entry): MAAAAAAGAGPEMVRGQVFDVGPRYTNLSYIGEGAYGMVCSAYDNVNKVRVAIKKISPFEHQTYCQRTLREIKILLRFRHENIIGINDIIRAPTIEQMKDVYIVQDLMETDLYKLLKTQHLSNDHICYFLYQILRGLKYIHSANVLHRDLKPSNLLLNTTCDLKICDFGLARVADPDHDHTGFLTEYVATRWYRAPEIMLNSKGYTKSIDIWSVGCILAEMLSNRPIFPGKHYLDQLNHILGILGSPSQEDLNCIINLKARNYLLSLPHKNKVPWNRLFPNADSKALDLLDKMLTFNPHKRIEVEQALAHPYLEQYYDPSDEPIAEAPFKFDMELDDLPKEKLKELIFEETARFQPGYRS

The term ΔTm denotes the shift of the melting midpoint relative to a reference. The IC50 is the concentration that inhibits the measured activity by half. Turning to `Brc1c(Br)c(Br)c2[nH]nnc2c1Br` [TETRABROMOBENZOTRIAZOLE], the thermal shift (ΔTm) in test [1] is -0.7 °C; in [3], 2.4 °C; in [4], 2.4 °C; in test [5], 0.6 °C; in [6] it was -1.5 °C; in [7] it was 0.8 °C. For the same compound, the ΔTm was 1.2 °C in [8] and 2.4 °C in test [9]. This compound displayed an IC50 in test [2] of 60 µM.
In general, Ki refers to a dissociation constant, usually derived from enzyme kinetics or from competition with a known ligand. Read a low Ki as tighter binding. Regarding `O=S(=O)(c1cccc2c(Cl)cccc12)N1CCCNCC1`, the ΔTm in test [1] was 0.5 °C; in test [3], 0 °C; in test [4], 0.6 °C; in [5], 0.3 °C; in [6], 0.3 °C; in [7], -0.3 °C. Further, the ΔTm was found to be 0.3 °C in test [8] and 0.2 °C in test [9]. In addition, the figures for the inhibitory constant (Ki) in [10], in [11] and in [12] were 32 µM, 3.8 µM and 54 µM, respectively.
Consider `CCCNC(=O)Nc1ccc(Oc2ncnc3cc(OC)c(OC)cc23)cc1Cl` [KRN-633], for which the ΔTm in test [1] was 0.3 °C; in [3] it was 0 °C; in [4], -0.2 °C; in test [5], 0.3 °C; in [6], 0.3 °C; in [7], -0.3 °C. In addition, the shift in melting temperature (ΔTm) in test [8] stood at 0.8 °C; in test [9], 0.1 °C. The compound also returned an IC50 in test [13] of 4.33 µM.
Regarding `NC1=N/C(=C2/CCNC(=O)c3[nH]ccc32)C(=O)N1` [DEBROMOHYMENIALDISINE], the ΔTm in [1] was 0.1 °C; in test [3], 0.3 °C; in test [4], 3.7 °C; in test [5], 0.3 °C; in test [6], 1.3 °C; in test [7], -0.4 °C. Besides, the ΔTm in test [8] was determined as 0.7 °C; in test [9], 5 °C. The compound also displayed an IC50 in test [14] of 3 µM.
Take `O=C1C(Cl)=C(N2C(=O)CCC2=O)C(=O)c2ccccc21`: the ΔTm in test [1] was -1.5 °C; in test [3] it was -11 °C; in test [4], -1.3 °C; in [5] it was -0.4 °C; in [6] it was -0.6 °C; in test [7], 8.6 °C. For the same compound, the ΔTm in test [8] is -1.5 °C; in test [9], -3.5 °C. This compound also came in with an IC50 in test [15] of 82.9 µM.
With `c1ccc(-c2n[nH]c3c2oc2ccccc23)cc1`, the ΔTm in [1] is -0.2 °C; in [3], 1 °C; in test [4] it was 1.7 °C; in test [5], 0.4 °C; in [6], 1 °C; in test [7], 1.2 °C. Moreover, the ΔTm came out at 0.6 °C in test [8] and 0.8 °C in test [9]. Besides, the IC50 in test [16] was no less than 10 µM; in test [13], 0.3 µM; in [17] it was no less than 10 µM; in test [15], no less than 10 µM.
On to `CN1CCc2[nH]c(=S)c(C#N)c(-c3cccs3)c2C1`, for which the ΔTm in [1] was -0.8 °C; in test [3], -0.2 °C; in [4], 6.2 °C; in [5], 1 °C; in test [7] it was 4.3 °C; in test [8], -0.2 °C. Moreover, the ΔTm in [9] was 4 °C. It took 1.4 µM to reach half-maximal inhibition in test [14] (IC50).
Regarding `O=C1Cc2c([nH]c3ccc(Br)cc23)-c2ccccc2N1` [KENPAULLONE], the ΔTm is 0.2 °C in test [1]; 0.4 °C in test [3]; 0.1 °C in [4]; -0.2 °C in test [5]; -0.1 °C in test [6]; 0.2 °C in test [7]. For the same compound, the shift in melting temperature (ΔTm) in test [8] turned out to be 0.5 °C; in [9], 10.5 °C. Besides, the IC50 in [15] came to 20 µM.
For `Cl.Cn1cc(C2=C(c3ccc4cc5n(c4c3)CCC(CN)C5)C(=O)NC2=O)c2ccccc21` (stereo not drawn), the ΔTm is -0.5 °C in test [1]; 1.1 °C in test [3]; 1 °C in test [4]; 1.1 °C in [5]; 0.8 °C in [6]; -0.1 °C in test [7]. Moreover, the ΔTm came out at 1.2 °C in [8] and 6.7 °C in test [9]. The 50% inhibitory concentration (IC50) amounted to 0.039 µM in [18] and 3.7 µM in test [11].
As for `COc1ccc2c(c[n+](C)c3c4cc5c(cc4ccc23)OCO5)c1OC` [CHELERYTHRINE CHLORIDE], the thermal shift (ΔTm) was -0.8 °C in [1]; -6.6 °C in test [3]; -0.2 °C in test [4]; -0.2 °C in [5]; -0.1 °C in test [6]; 0.6 °C in test [7]. The ΔTm in [8] is 0.1 °C; in test [9] it was -1.5 °C. In addition, the IC50 in test [18] was 0.024 µM.
As to `CN(C)c1ncnc2nc[nH]c12` [DIMETHYLADENINE], the ΔTm in [1] was -0.2 °C; in test [3], 0.2 °C; in [4], 0.9 °C; in test [5], 0 °C; in [6] it was 0 °C; in [7], 0.1 °C. For the same compound, the thermal shift (ΔTm) in [8] came to 0 °C; in test [9], 0.7 °C. Moreover, the IC50 in test [19] was found to be 300 µM.
With `O=C1NC(=O)c2c1c1c3ccccc3[nH]c1n1cncc21` [ISOGRANULATIMIDE], the ΔTm in test [1] stood at 1 °C; in test [3], 14.6 °C; in [4], 4.1 °C; in test [5], 2.5 °C; in test [6] it was 1.7 °C; in test [7], 2 °C. Also, the results for the ΔTm in test [8] and in [9] were 1.2 °C and 8.8 °C, respectively. The compound also yielded an IC50 in [14] of 0.1 µM.
Broadly, the Kd is the equilibrium constant for the complex coming apart. The low end stands for higher affinity, the high end for lower affinity. In the case of `N=C(N)NCCNS(=O)(=O)c1cccc2cnccc12`, the shift in melting temperature (ΔTm) in test [1] is 0.1 °C; in [3] it was -0.1 °C; in test [4] it was 0.1 °C; in [5], 0 °C; in [6], 0.3 °C; in test [7] it was -0.3 °C. Also, the ΔTm in test [8] and in test [9] was 0.4 °C throughout. The compound further yielded a Kd in [16] of 5 µM. For the same compound, the inhibitory constant (Ki) in [10] was 2.3 µM; in [12], 40 µM.
In the case of `CCN(CC)CCNC(=O)c1c(C)[nH]c(/C=C2\C(=O)Nc3ccc(Cl)cc32)c1C` [SU-11652], the ΔTm in [1] is 2.3 °C; in test [3], 2.4 °C; in test [4] it was 5.8 °C; in test [5] it was 6.2 °C; in test [6], 0.6 °C; in [7] it was -0.4 °C. In addition, the ΔTm in test [8] turned out to be 2.8 °C; in [9] it was 3.8 °C. Besides, in test [13], inhibition was half-maximal at 0.01 µM (IC50).
